Assay results reported in patent publication US20140349941A1, “AROMATIC-CATIONIC PEPTIDES AND USES OF SAME” (Cornell University, priority 2011, published 2014).
Where no end group is shown, it is not given here. [ ]: non-standard residue; d: D form.

Assays:
[1] = target: heme environment of cytochrome c (with CL) (Homo sapiens, UniProt P99999); test: Soret CD spectrum of cyt C in the presence of CL; assay type: binding; conditions: cyt C 10 μM; CL 30 μg/ml; peptide 10 μM; 20 mM HEPES pH 7.5, 25° C.; FIG. 24
Sequence of heme environment of cytochrome c (with CL) (P99999 2-105 limits assumed, species assumed): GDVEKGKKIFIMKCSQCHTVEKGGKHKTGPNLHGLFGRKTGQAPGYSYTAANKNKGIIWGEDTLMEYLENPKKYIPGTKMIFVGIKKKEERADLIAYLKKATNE
Experimental: Circular dichroism (CD) was carried out to examine the effects of the peptides on protecting the heme environment of cyt C from the acyl chain of CL. For heme proteins, the Soret CD spectrum is strictly correlated with the heme pocket conformation. In particular, the negative 416-420 nm Cotton effect is considered diagnostic of Fe(III)-Met80 coordination in native cyt C (Santucci and Ascoli, 1997). […] CD spectra were obtained using AVIV CD Spectrometer Model 410.
Changes in the Soret CD spectrum of cyt C (10 μM) were recorded in the absence (dotted line) and presence (dashed line) of 30 μg/ml CL, plus addition of different peptides (10 μM) (solid line) (FIG. 24). CD measurements were carried out using 20 mM HEPES, pH 7.5, at 25° C. and expressed as molar ellipticity (θ) (m Deg).

[2] = target: cytochrome c (with CL) (Homo sapiens, UniProt P99999); test: Cytochrome c reduction inhibited by CL; assay type: biochemical; conditions: 500 μM GSH; FIG. 25C
Sequence of cytochrome c (with CL) (P99999 2-105 limits assumed, species assumed): as above
Experimental: Cytochrome c is a carrier of electrons between respiratory complex III and IV in mitochondria. Cytochrome c is reduced (Fe^2+) after it accepts an electron from cytochrome c reductase, and it is then oxidized to Fe^3+ by cytochrome c oxidase.
Reduction of cytochrome c (20 μM) was induced by the addition of glutathione (500 μM) in the absence or presence of CL (100 μg/ml) (FIG. 25A). Reduction of cytochrome c was monitored by absorbance at 550 nm using a 96-well UV-VIS plate reader (Molecular Devices). Addition of CL decreased the rate of cytochrome c reduction by half.

[3] = target: T1, cytochrome c-CL complex (Homo sapiens, UniProt P99999); test: Cytochrome c/CL peroxidase activity (amplex red); assay type: biochemical; conditions: figure legend FIG. 29A-C; comparison at a fixed concentration of 10 μM (FIG. 29C)
T1 sequence (P99999 2-105 limits assumed, species assumed, one chain of several): as the sequence (P99999 2-105 limits assumed, species assumed) above
Excerpt: The six coordination of the heme in cytochrome c prevents direct interaction of H2O2 with the catalytic metal site, and native cytochrome c in solution is a poor peroxidase. Upon interaction with CL, cytochrome c undergoes a structural change with rupture of the Fe-Met80 coordination. […] The mechanism of action of cytochrome c peroxidase is similar to that of other peroxidases, such as horse radish peroxidase (HRP). Thus it is possible to use the amplex red-HRP reaction to investigate cytochrome c peroxidase activity. In the presence of peroxidase, amplex red (AR) reacts with H2O2 to form the red-fluorescent oxidation product, resorufin (Ex/Em=571/585).
Cytochrome c (2 μM) was mixed with CL (25 μg/ml) and 10 μM H2O2 in 20 mM HEPES, pH 7.4. Amplex red (50 μM) was then added and fluorescence emission monitored in real time using Hitachi F4500 fluorescence spectrophotometer. Addition of amplex red elicited rapid increase in fluorescence signal due to resorufin formation, providing direct evidence for peroxidase activity of cytochrome c/CL complex (FIG. 29A).

[4] = Fluorescence spectroscopy of peptide interaction with cardiolipin; assay type: binding; conditions: for increase in quantal yield of peptide fluorescence: peptide 1 μM
Excerpt: The peptides Dmt-D-Arg-(atn)Dap-Lys-NH2 (SS-19) and Dmt-D-Arg-Phe-Lys-Ald-NH2 (SS-37)cationic peptides carry net positive charge at neutral pH. They are expected to associate with anionic phospholipid cardiolipin based on electrostatic interaction. The interaction of small peptides with lipid membranes can been studied using fluorescence spectroscopy (Surewicz and Epand, 1984). […] Polarity-sensitive fluorescent probes were incorporated into the peptides and fluorescence spectroscopy was used to determine if SS-19, SS-37 and SS-36 interact with CL.
The peptide Dmt-D-Arg-Phe-(atn)Dap-NH2 (SS-19) contains anthraniloyl incorporated into diaminopropionic acid. Anthraniloyl derivatives fluoresce in the 410-420 nm range when excited at 320-330 nm (Hiratsuka T, 1983). The quantum yield of anthraniloyl derivatives is strongly dependent on the local environment, and can increase 5-fold going from water to 80% ethanol, together with a blue shift in the emission maxima (λ max) of <10 nm (Hiratsuka T, 1983). Fluorescence emission spectrum of SS-19 (1 μM) alone, and in the presence of increasing concentrations of CL (5 to 50 μg/ml), was monitored following excitation at 320 nm using Hitachi F-4500 fluorescence spectrophotometer.
The peptide Dmt-D-Arg-Phe-Lys-Ald-NH2 (SS-37) contains an additional amino acid, aladan (Ald), which has been reported to be particularly sensitive to the polarity of its environment and it has been used to probe the electrostatic character of proteins (Cohen et al., 2002). When excited at 350 nm, λmax shifts from 542 nm in water to 409 nm in heptane, accompanied by a significant increase in quantal yield (Cohen et al., 2001). Fluorescence emission spectrum of SS-37 (1 μM) alone, and in the presence of increasing concentrations of CL, was monitored following excitation at 350 nm. Addition of CL (5 to 50 μg/ml) led to a 3-fold increase in quantal yield of SS-37 as well as a clear blue shift in λmax, from 525 nm without CL to 500 nm with 50 μg/ml CL (FIG. 21B).
The peptide Dmt-D-Arg-Ald-Lys-NH2 (SS-36) contains Ald in place Phe^3. Fluorescence emission spectrum of SS-36 (1 μM) alone, and in the presence of increasing concentrations of CL, was monitored following excitation at 350 nm. SS-36 was the most sensitive to the addition of CL, with dramatic increase in quantal yield and blue shift observed with much lower added amounts of CL (1.25 to 5 μg/ml). The λmax shifted from 525 nm without CL to 500 nm with as little as 1.25 μg/ml CL, and quantal yield increased by more than 100-fold with the addition of 5 μg/ml of CL (FIG. 21C).

[5] = target: T1, cytochrome c-CL complex; test: Fluorescence spectroscopy of peptide with cytochrome c in the presence of CL; assay type: binding; conditions: for peptide fluorescence on addition of cytochrome c in the presence of CL: 2 μM cytochrome c; for emission maxima: with CL 2.5 μg/ml
Experimental: Fluorescence emission of SS-19 (10 μM) was monitored in real time (Ex/Em=320 nm/420 nm) using Hitachi F-4500 fluorescence spectrophotometer. […] CL may potentiate the interaction between SS-19 and cytochrome c by serving as an anionic platform for the two cationic molecules.
The quenching by cytochrome c was not displaced by sequential additions of bovine serum albumin (500 μg/ml) (FIG. 23C, A+arrows).
SS-36 also contains the polarity-sensitive fluorescent amino acid aladan.

[6] = test system: isolated mitochondria; test: ATP synthesis in isolated mitochondria; assay type: biochemical, rat; conditions: mitochondria energized with low concentrations of succinate; FIG. 15
Experimental: (§1) Fresh mitochondria were isolated from rat kidney as described previously. Electron flux was measured by O2 consumption (Oxygraph Clark electrode) as previously described using different substrates for C1 (glutamate/malate), C2 (succinate), and C3 (TMPD/ascorbate). Assays were carried out under low substrate conditions in order to avoid saturating the enzyme reactions. ATP production in isolated mitochondria was determined kinetically using the luciferase method (Biotherma) in a 96-well luminescence plate reader (Molecular Devices). The initial maximal rate for ATP synthesis was determined over the first minute.
The rate of mitochondrial ATP synthesis was determined by measuring ATP in respiration buffer collected from isolated mitochondria 1 min after addition of […] (FIG. 6). ATP was assayed by HPLC. All experiments were carried out in triplicate, with n=3.
(§2) SS-20 or SS-31 was added at 100 μM concentrations to isolated mitochondria in respiration buffer containing 0.5 mM succinate (complex II substrate) and 400 μM ADP. Similar increases in O2 consumption were observed when low concentrations of complex I substrates (glutamate/malate) were used (data not shown).
Increase in electron flux in the electron transport chain can either result in increase in ATP synthesis or increase in electron leak and generation of free radicals. ATP synthesis in isolated mitochondria was assayed by HPLC.

[7] = test system: isolated rat kidney mitochondria; test: O2 consumption of isolated rat kidney mitochondria (Oxygraph); assay type: biochemical
Experimental: as §1
Oxygen consumption of isolated rat kidney mitochondria was determined using the Oxygraph (FIG. 5). Rates of respiration were measured in the presence of different concentrations of SS-31 in state 2 (400 μM ADP only), state 3 (400 μM ADP and 500 μM substrates) and state 4 (substrates only). All experiments were done in triplicate with n=4-7.
as §2
SS-20 or SS-31 was added at 10 μM or 100 μM concentrations to isolated mitochondria in respiration buffer containing glutamate/malate (complex I substrate), 0.5 mM succinate (complex II substrate) or 3 μM TMPD/1 mM ascorbate (direct reductant of cyt C). 400 μM ADP was added to initiate State 3 respiration.

[8] = target: cytochrome c (Homo sapiens, UniProt P99999); test: Cytochrome c reduction monitored by absorption spectroscopy (glutathione or NAC as reducing agent); assay type: biochemical; conditions: absorbance at 550 nm; FIG. 13
Sequence of cytochrome c (P99999 2-105 limits assumed, species assumed): as above
Experimental: Cytochrome c reduction: increasing amounts of aromatic-cationic peptides were added to a solution of oxidized cyt c. The formation of reduced cyt c was monitored by absorbance at […]. The rate of cyt c reduction was determined by non-linear analysis (Prizm software).
Time-resolved UV-Visible absorption spectroscopy was used to study the electron transport process of cyt c in the presence of peptides. Reduced cyt c was monitored by absorbance at a broad-band spectral range (200-1100 nm). The absorption changes were recorded with a UV/Visible spectrophotometer (Ultrospec 3300 pro, GE) in quartz cells with path lengths of 1 or 2 mm. N-acetylcysteine (NAC) and glutathione were used as electron donors to reduce oxidized cyt c. The rate constant of cyt c reduction was estimated by adding various concentrations of peptides. The dose dependence of the peptides was correlated to the cyt c reduction kinetics.
Absorption spectroscopy (UltroSpec 3300 Pro; 220-1100 nm) was used to determine if SS-31 modulates cyt c reduction (FIG. 1). Reduction of cyt c with glutathione is associated with multiple shifts in the Q band (450-650 nm), with a prominent shift at 550 nm.
Reduction of cyt c was monitored by increase in absorbance at 550 nm. […] Similar results were obtained using N-acetylcysteine (NAC) as a reducing agent (not shown).

For “D-Arg-Tyr-Lys-Phe-NH2 ([dR]YKF-NH2; N-terminus assumed; SMILES N=C(N)NCCC[C@@H](N)C(=O)N[C@@H](Cc1ccc(O)cc1)C(=O)N[C@@H](CCCCN)C(=O)N[C@@H](Cc1ccccc1)C(N)=O) [SPI-231]”, the “disappearance of the negative Cotton effect caused by CL (heme environment of cytochrome c)” value (“disappearance” below) [1] was “Protect the Heme Environment of Cytochrome C from the Acyl Chain of CL”, the “CL inhibition of cyt C reduction” value [2] was “prevented CL inhibition of cyt C reduction” and the “peroxidase activity in cytochrome c/CL complex” value (“peroxidase activity” for short) [3] was “preventing peroxidase activity in cytochrome c/CL complex”.
For Dmt-D-Arg-Ald-Lys-NH2 [SS-36], the “increase in quantal yield of peptide fluorescence” value ([4]; CL 5 μg/ml, excitation 350 nm) was “more than 100 fold”, the “λmax of fluorescence emission” value ([4]; with 1.25 μg/ml CL, excitation 350 nm) was 500 nm and the “λmax of fluorescence emission” value ([4]; without CL, excitation 350 nm) was 525 nm. The “disappearance” value [1] was “Protect the Heme Environment of Cytochrome C from the Acyl Chain of CL”, the “peptide fluorescence on addition of cytochrome c in the presence of CL” value ([5]; CL 2.5 μg/ml, FIG. 23D) was “dramatic quenching of peptide's fluorescence” and the “peptide fluorescence on addition of CL” value ([5]; CL 2.5 μg/ml, FIG. 23D) was “increase in SS-36 fluorescence”. The emission maxima ([5]; after 2 μM cytochrome c) was 450 nm, the emission maxima ([5]; before cytochrome c) was 510 nm and the “peroxidase activity” value [3] was “preventing peroxidase activity in cytochrome c/CL complex”.
With Dmt-D-Arg-Phe-Lys-Ald-NH2 [SS-37] the “increase in quantal yield of peptide fluorescence” value ([4]; CL 5-50 μg/ml) was 3 fold, the “λmax of fluorescence emission” value ([4]; with 50 μg/ml CL, excitation 350 nm) was 500 nm and the “λmax of fluorescence emission” value ([4]; without CL, excitation 350 nm) was 525 nm. The “displacement of cytochrome c quenching by bovine serum albumin in the presence of CL” value ([5]; CL 50 μg/ml, BSA 500 μg/ml, FIG. 23C) was “not displaced”, the “peptide fluorescence on addition of cytochrome c in the presence of CL” value ([5]; peptide 10 μM, CL 50 μg/ml) was “similarly quenched” and the “peroxidase activity” value [3] was “preventing peroxidase activity in cytochrome c/CL complex”.
With F[dR]FK-NH2 [SS-20] the “disappearance” value [1] was “Protect the Heme Environment of Cytochrome C from the Acyl Chain of CL”, the “rate of ATP production” value [6] was “significant increase in the rate of ATP production” and the “O2 consumption in state 3 respiration” value ([7]; glutamate/malate, succinate or TMPD/ascorbate, 400 μM ADP, FIG. 26) was “increases O2 consumption in state 3 respiration”. For the same substance, the “electron flux, as measured by O2 consumption” value ([7]; peptide 10 μM or 100 μM, complex I, complex II substrate or TMPD/ascorbate, FIG. 26) was “can promote electron flux”, the “electron flux, as measured by O2 consumption” value ([7]; peptide 100 μM, 0.5 mM succinate, 400 μM ADP, FIG. 14) was “can promote electron flux” and the “kinetics of cyt c reduction induced by glutathione (GSH)” value [8] was “can accelerate the kinetics of cyt c reduction”. For the same substance, the “CL inhibition of cyt C reduction” value [2] was “prevented CL inhibition of cyt C reduction” and the “peroxidase activity” value [3] was “preventing peroxidase activity in cytochrome c/CL complex”.
